The record followed here is PMC10916402, “Meropenem-ANT3310, a unique β-lactam-β-lactamase inhibitor combination with expanded antibacterial spectrum against Gram-negative pathogens including carbapenem-resistant Acinetobacter baumannii” (Antimicrobial Agents and Chemotherapy, 2024).

Several values for one entry are separate records, joined by “and”; a condition that tells them apart may be missing. Equal values may be shown once. Read-outs that look alike come from different tables or passages of the source.

The target in one experiment is OXA-48 (Klebsiella pneumoniae, UniProt Q6XEC0). Put plainly: In vitro SBL inhibition assay (nitrocefin hydrolysis), IC50. In kind it is biochemical. To be noted: 10 min preincubation, 30°C, read-out: Enzyme IC50. The protocol: (§1) Nitrocefin (Sigma-Aldrich, St Louis, MO, USA), a chromogenic cephalosporin antibiotic (λ, 482 nm; εM, 15,000 M^−1.cm^−1), was used as a reporter substrate at 100 µM for KPC-2, OXA-23, and OXA-48, at 200 µM for OXA-24 and OXA-51, and at 50 µM for OXA-58. Enzymes were preincubated in the presence of varying concentrations of each compound (0.006 to 3000 nM, diluted twofold in dimethyl sulfoxide (DMSO) for KPC-2, OXA-23, and OXA-48 assays and 0.51 to 10,000 nM diluted threefold in DMSO for OXA-24, OXA-51, and OXA-58) for 10 min at 30°C. Nitrocefin was then added and its hydrolysis by the uninhibited enzyme fraction was followed at an absorbance wavelength of 482 nm for 10 min at 30°C using Envision UV fluorescence plate reader (Perkin Elmer, Waltham, MA, USA). Hydrolysis rate data were used to determine inhibitory activities, expressed in IC50 values [corresponding to the compound concentration (µM) required to inhibit 50% of enzymatic reaction].
OXA-48, sequence (Q6XEC0 23-265, looked up, species assumed): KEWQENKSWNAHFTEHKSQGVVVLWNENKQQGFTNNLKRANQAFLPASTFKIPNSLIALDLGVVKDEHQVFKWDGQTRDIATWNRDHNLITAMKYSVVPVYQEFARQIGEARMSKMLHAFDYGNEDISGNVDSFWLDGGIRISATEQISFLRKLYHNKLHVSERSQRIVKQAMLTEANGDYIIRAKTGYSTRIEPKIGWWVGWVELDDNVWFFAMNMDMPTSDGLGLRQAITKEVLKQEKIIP

In a further experiment the target is KPC-2 (Klebsiella pneumoniae, UniProt Q9F663). The description is as above. Type of experiment: biochemical. How it is done:
as §1

The next experiment concerns the target OXA-23 (Acinetobacter baumannii, UniProt Q9L4P2). Described as above. In kind it is biochemical. To be noted: 10 min preincubation, 30°C, read-out: Enzyme IC50. How it is done: as §1
The target of the next experiment is OXA-24/40 (Acinetobacter baumannii, UniProt Q8RLA6). Described as above. In kind it is biochemical. To be noted: 10 min preincubation, 30°C, read-out: Enzyme IC50. The protocol:
as §1

A further experiment has as its target OXA-51 (Acinetobacter baumannii, UniProt Q5QT35). Described as above. To be noted: 10 min preincubation, 30°C, read-out: Enzyme IC50. In kind it is biochemical, A. baumannii. The protocol: as §1
The next experiment addresses OXA-58 (Acinetobacter baumannii, UniProt Q2TR58). The experiment is described as above. In kind it is biochemical, A. baumannii. The protocol: as §1
In experiment [1] the test system is A. baumannii clinical isolates. Nature of the experiment: Broth microdilution MIC, A. baumannii clinical isolates. To be noted: for CLSI % Res: CLSI BP, for MEM-ANT3310 % at ≥16 µg/mL; for EUCAST % Res / EUCAST % Sus: EUCAST BP; for Number of isolates inhibited at MIC of >16 µg/mL: footnote c. Type of experiment: cell-based, Acinetobacter baumannii. How it is done: (§2) All isolates were randomly selected from the frozen culture collection of IHMA collected in 2018 and 2019. Matrix-assisted laser desorption ionization-time of flight mass spectrometry was used to confirm the identity of the organisms tested (Bruker Daltonics, Bremen, Germany).
(§3) MICs for all antimicrobial agents were determined at IHMA by broth microdilution in accordance with both CLSI ([17]) and EUCAST ([18]) guidelines. Microtiter panels were prepared by IHMA and stored at −70°C in cation-adjusted Mueller Hinton broth (CAMHB) (Becton Dickinson). Iron-depleted CAMHB was used to test cefiderocol. Panels containing ANT3310 were prepared fresh on the day of testing. […] MIC values corresponded to the first well with no visible growth. Quality control testing was performed on each day of testing with E. coli ATCC 25922, P. aeruginosa ATCC 27853, K. pneumoniae ATCC 700603 and BAA 1705, and A. baumannii NCTC 13304. MICs were interpreted using 2023 CLSI ([17]) and EUCAST ([18]) BPs.

Experiment [2] concerns KPC-producing Enterobacterales (KPC-CRE). Nature of the experiment: organism not typed. Type of experiment: cell-based. To be noted: 180 KPC-producing Enterobacterales. The protocol: as §2, §3
The subject of experiment [3] is OXA-producing Enterobacterales (OXA-CRE). Nature of the experiment: organism not typed. Type of experiment: cell-based. To be noted: 252 OXA-producing Enterobacterales. The protocol:
as §2, §3

Experiment [4] concerns P. aeruginosa clinical isolates. Nature of the experiment: Broth microdilution MIC, P. aeruginosa clinical isolates. To be noted: 502 P. aeruginosa, 2019 global collection. Type of experiment: cell-based, Pseudomonas aeruginosa. How it is done:
as §2, §3
(Broth dilution looks for growth in wells or tubes with falling amounts of substance.)

The subject of experiment [5] is carbapenem-resistant Acinetobacter baumannii (CRAB) clinical isolates. Nature of the experiment: Broth microdilution MIC, CRAB isolates. In kind it is cell-based. To be noted: for CLSI % Res / EUCAST % Res / EUCAST % Sus / Number of isolates inhibited at MIC of >16 µg/mL: CRAB; for CLSI % Res: CLSI BP, for MEM-ANT3310 % at ≥16 µg/mL; for EUCAST % Res / EUCAST % Sus: EUCAST BP; for Number of isolates inhibited at MIC of >16 µg/mL: footnote c. How it is done: as §2, §3

The mark [6] stands for this setting: 2018 Global collection, All A. baumannii, N 500.
Setting [7] is: 2019 Global collection, All A. baumannii, N 405.
Setting [8] is: CLSI BP, for MEM-ANT3310 % at ≥16 µg/mL.

KPC-2, sequence (Q9F663 25-293 limits assumed): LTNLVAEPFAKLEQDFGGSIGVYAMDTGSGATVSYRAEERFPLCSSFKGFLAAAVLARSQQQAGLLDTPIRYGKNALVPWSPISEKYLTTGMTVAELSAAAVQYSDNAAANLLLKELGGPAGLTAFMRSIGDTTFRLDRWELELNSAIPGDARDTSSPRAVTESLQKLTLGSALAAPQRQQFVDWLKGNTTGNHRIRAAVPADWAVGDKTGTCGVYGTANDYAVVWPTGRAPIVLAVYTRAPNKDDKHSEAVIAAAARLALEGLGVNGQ
OXA-24/40, sequence (Q8RLA6 22-275): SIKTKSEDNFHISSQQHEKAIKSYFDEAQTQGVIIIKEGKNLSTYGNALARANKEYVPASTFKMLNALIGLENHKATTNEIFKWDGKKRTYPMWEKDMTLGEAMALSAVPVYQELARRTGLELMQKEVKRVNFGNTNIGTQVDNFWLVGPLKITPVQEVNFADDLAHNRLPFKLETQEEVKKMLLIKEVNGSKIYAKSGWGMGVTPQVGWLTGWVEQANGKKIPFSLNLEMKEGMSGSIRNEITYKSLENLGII
OXA-23, sequence (Q9L4P2 18-273): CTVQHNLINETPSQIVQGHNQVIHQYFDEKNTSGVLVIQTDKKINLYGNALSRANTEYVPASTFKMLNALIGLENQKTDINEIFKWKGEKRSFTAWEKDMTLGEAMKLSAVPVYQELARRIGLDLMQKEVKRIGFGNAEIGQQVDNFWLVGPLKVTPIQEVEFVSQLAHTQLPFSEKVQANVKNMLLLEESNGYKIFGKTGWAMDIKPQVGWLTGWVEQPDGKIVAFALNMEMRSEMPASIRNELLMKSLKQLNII
OXA-58, sequence (Q2TR58 19-280): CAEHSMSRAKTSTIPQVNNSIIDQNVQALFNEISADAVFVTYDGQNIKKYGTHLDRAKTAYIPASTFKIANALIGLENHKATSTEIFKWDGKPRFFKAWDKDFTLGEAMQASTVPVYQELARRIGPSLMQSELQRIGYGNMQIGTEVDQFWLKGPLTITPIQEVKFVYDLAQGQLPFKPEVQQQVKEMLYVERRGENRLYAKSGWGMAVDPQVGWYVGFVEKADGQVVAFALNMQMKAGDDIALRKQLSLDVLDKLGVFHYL
OXA-51, sequence (Q5QT35 entry or part of it): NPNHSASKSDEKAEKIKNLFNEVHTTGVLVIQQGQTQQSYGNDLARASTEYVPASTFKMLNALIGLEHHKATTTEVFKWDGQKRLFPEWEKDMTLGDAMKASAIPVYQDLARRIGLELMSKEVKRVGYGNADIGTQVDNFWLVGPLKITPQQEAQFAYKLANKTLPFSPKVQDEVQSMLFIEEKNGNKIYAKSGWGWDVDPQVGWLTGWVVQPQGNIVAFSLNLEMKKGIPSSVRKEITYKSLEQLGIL

For the compound `CC1=C[C@@H]2CN(C(=O)N2OS(=O)(=O)O)[C@@H]1C(N)=O` [Dur, durlobactam], the IC50 (as a rule, the concentration needed to halve the response being measured) at OXA-48 came out at 0.0034 µM; on KPC-2, 0.0053 µM; on OXA-23 it was 0.347 µM; on OXA-24/40, 0.208 µM; on OXA-51, 4.3 µM; at OXA-58, 0.011 µM.

Take `O=C(NNC(=O)[C@@H]1CC[C@@H]2CN1C(=O)N2OS(=O)(=O)O)[C@@H]1CCCNC1` [Zid, zidebactam]: the IC50 was 0.0389 µM against KPC-2; over 3 µM on OXA-23; over 10 µM at OXA-24/40; over 10 µM on OXA-51; over 10 µM against OXA-58.

In the case of colistin, in [1] (setting [6]), the MIC50 (in general, an inhibitory concentration at the 50% level, which refers to growth in some studies and to a panel of isolates in others) is given as 0.25 µg/mL; the MIC90 (in general, an inhibitory concentration at the 90% level, which refers to growth in some studies and to a panel of isolates in others) is recorded as 0.5 µg/mL; the “Number of isolates inhibited at MIC of 0.25 µg/mL” value is given as 287; the “Number of isolates inhibited at MIC of 0.5 µg/mL” value was 165. Further, in experiment [1] (setting [6]), the “Number of isolates inhibited at MIC of 1 µg/mL” value is reported as 15, the “Number of isolates inhibited at MIC of 4 µg/mL” value worked out at 3, the “Number of isolates inhibited at MIC of 8 µg/mL” value came out at 2 and the “Number of isolates inhibited at MIC of 16 µg/mL” value came to 2. In experiment [1] (setting [6]), the “Number of isolates inhibited at MIC of ≤0.125 µg/mL” value amounted to 22, the “CLSI % Res” value is 2.2%, the “EUCAST % Res” value came out at 2.2% and the “EUCAST % Sus” value is 97.8%. Also, in [1] (setting [6]), the “Number of isolates inhibited at MIC of >16 µg/mL” value is 4^c. In experiment [1] (setting [7]), the MIC50 was 0.5 µg/mL, the MIC90 is listed as 1 µg/mL, the “Number of isolates inhibited at MIC of 0.25 µg/mL” value stood at 32 and the “Number of isolates inhibited at MIC of 0.5 µg/mL” value is given as 296. Further, in experiment [1] (setting [7]), the “Number of isolates inhibited at MIC of 1 µg/mL” value was determined as 66, the “Number of isolates inhibited at MIC of 2 µg/mL” value is on record as 5, the “Number of isolates inhibited at MIC of 4 µg/mL” value stood at 1 and the “Number of isolates inhibited at MIC of 16 µg/mL” value stood at 1. In addition, in experiment [1] (setting [7]), the “CLSI % Res” value is given as 1.5%, the “EUCAST % Res” value is 1.5%, the “EUCAST % Sus” value was determined as 98.5% and the “Number of isolates inhibited at MIC of >16 µg/mL” value is 4^c. Also, the “% susceptible at EUCAST BP” value in experiment [1] (A. baumannii, 2018/2019 collections) was determined as 98.1%. Moreover, the MIC90 in experiment [1] (A. baumannii, one or both of the 2018/2019 collections) worked out at 1 µg/mL. In addition, in experiment [2] (2018 global collection), the MIC50 came out at 0.25 µg/mL and the MIC90 was found to be 16 µg/mL. Besides, in [2] (setting [8]), the “CLSI % Res” value is listed as 26.7%. Moreover, in experiment [2] (EUCAST BP), the “EUCAST % Res” value amounted to 26.7% and the “EUCAST % Sus” value is on record as 73.3%. Moreover, in experiment [3] (2018 global collection), the MIC50 is on record as 0.25 µg/mL and the MIC90 is 8 µg/mL. In addition, the “CLSI % Res” value in experiment [3] (setting [8]) came out at 23.8%. In experiment [3] (EUCAST BP), the “EUCAST % Res” value turned out to be 23.8% and the “EUCAST % Sus” value was found to be 76.2%. Besides, in experiment [4], the MIC50 was 1 µg/mL, the MIC90 was 1 µg/mL, the “Number of isolates inhibited at MIC of 0.25 µg/mL” value is listed as 4 and the “Number of isolates inhibited at MIC of 0.5 µg/mL” value was 21. In experiment [4], the “Number of isolates inhibited at MIC of 1 µg/mL” value is on record as 452, the “Number of isolates inhibited at MIC of 2 µg/mL” value amounted to 21, the “Number of isolates inhibited at MIC of 4 µg/mL” value is 2 and the “Number of isolates inhibited at MIC of 16 µg/mL” value is recorded as 1. The “Number of isolates inhibited at MIC of ≤0.125 µg/mL” value in experiment [4] turned out to be 1. Besides, in [5], the MIC50 is 0.25 µg/mL and 0.5 µg/mL; the MIC90 was 0.5 µg/mL and 1 µg/mL; the “Number of isolates inhibited at MIC of 4 µg/mL” value stood at 2; the “Number of isolates inhibited at MIC of 8 µg/mL” value is recorded as 2. In [5], the “Number of isolates inhibited at MIC of 16 µg/mL” value is recorded as 2 and the “Number of isolates inhibited at MIC of ≤0.125 µg/mL” value stood at 13. In [5] (2018 Global collection, N 363), the “CLSI % Res” value is on record as 2.8%, the “EUCAST % Res” value amounted to 2.8%, the “EUCAST % Sus” value was 97.2% and the “Number of isolates inhibited at MIC of >16 µg/mL” value was 4^c. In addition, the “Number of isolates inhibited at MIC of 2 µg/mL” value in experiment [5] (2019 Global collection, CRAB (MEM MICs >4 µg/mL), N 340) was determined as 4. In [5] (2019 Global collection, N 340), the “CLSI % Res” value stood at 1.2%, the “EUCAST % Res” value amounted to 1.2%, the “EUCAST % Sus” value was found to be 98.8% and the “Number of isolates inhibited at MIC of >16 µg/mL” value is given as 4^c.

In the case of `O=C(NC1CCNCC1)[C@@H]1CC[C@@H]2CN1C(=O)N2OS(=O)(=O)O` (relative stereo) [Rel, relebactam], the IC50 was over 3 µM on OXA-23, over 10 µM at OXA-24/40, over 10 µM on OXA-51 and over 10 µM against OXA-58.

Turning to `O=C(O)C[C@@H]1CC[C@H](NC(=O)Cc2cccs2)B(O)O1` [Vab, vaborbactam], the half-inhibitory concentration (IC50) is over 3 µM on OXA-48; 0.102 µM at KPC-2 (KPC-2, 10 min preincubation, 30°C, read-out: Enzyme IC50); over 3 µM at OXA-23; over 10 µM against OXA-58.

On to `NCCONC(=O)[C@@H]1CC[C@@H]2CN1C(=O)N2OS(=O)(=O)O` [Nac, nacubactam], for which the IC50 at OXA-48 is over 3 µM; at KPC-2 it was 0.0272 µM; on OXA-23, over 3 µM; at OXA-24/40, over 10 µM; at OXA-51 it was over 10 µM; on OXA-58, over 10 µM.

Consider `NC(=O)[C@@H]1CC[C@@H]2CN1C(=O)N2OS(=O)(=O)O` [Avi, avibactam], for which the IC50 at OXA-51 and on OXA-58 was over 10 µM in each case.

For the compound `NCCN[C@H]1CC[C@H](CC(=O)N[C@H]2Cc3cccc(C(=O)O)c3OB2O)CC1` [Tan, taniborbactam], the IC50 on OXA-48 was 1.56 µM; against KPC-2, 0.0158 µM; on OXA-23 it was over 3 µM; on OXA-24/40, over 10 µM; at OXA-51, over 10 µM; against OXA-58, over 10 µM.
